The source of these data is PMC6130761, “Isolation, crystal structure determination and cholinesterase inhibitory potential of isotalatizidine hydrate from Delphinium denudatum” (Pharmaceutical Biology, 2016).

As usually defined, the IC50 is the point on the concentration scale where inhibition reaches its midpoint.

For experiment [1], the target named is T1, AChE (Electric-eel EC 3.1.1.7) (Electrophorus electricus, UniProt O42275).
T1 construct: purchased Sigma Aldrich
In words: biochemical. It is filed as biochemical. Particulars: for Type of inhibition (AChE): Lineweaver-Burk, Dixon plots and replots, 50, 75, 100 μM of compound 1.

The target of experiment [2] is T2, BChE (horse-serum E.C 3.1.1.8) (Equus caballus, UniProt P81908).
T2 construct: purchased Sigma Aldrich; host or cells: horse serum
T2 sequence (P81908 whole entry): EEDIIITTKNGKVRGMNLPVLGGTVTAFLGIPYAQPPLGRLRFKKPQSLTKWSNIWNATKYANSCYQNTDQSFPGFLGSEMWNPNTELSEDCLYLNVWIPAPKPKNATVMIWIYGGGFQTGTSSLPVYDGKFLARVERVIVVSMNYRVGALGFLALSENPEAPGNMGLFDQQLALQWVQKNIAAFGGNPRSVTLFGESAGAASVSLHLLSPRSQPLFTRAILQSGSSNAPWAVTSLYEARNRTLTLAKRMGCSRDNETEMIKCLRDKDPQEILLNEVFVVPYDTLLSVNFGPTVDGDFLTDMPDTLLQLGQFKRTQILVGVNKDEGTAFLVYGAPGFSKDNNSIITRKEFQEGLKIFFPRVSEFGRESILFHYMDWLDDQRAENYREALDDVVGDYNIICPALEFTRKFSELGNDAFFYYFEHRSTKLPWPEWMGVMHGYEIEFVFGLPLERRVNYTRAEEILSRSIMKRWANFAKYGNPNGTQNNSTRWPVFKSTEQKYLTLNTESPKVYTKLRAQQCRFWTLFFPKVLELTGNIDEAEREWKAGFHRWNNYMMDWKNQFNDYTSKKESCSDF
Put plainly: Cholinesterase inhibition assay (Ellman spectrophotometric method), BChE. The experiment is classed as biochemical. Particulars: for Type of inhibition (BChE): Lineweaver-Burk, Dixon plots and replots, 50, 75, 100 μM of compound 1. (In general: In Ellman's method for cholinesterases, released thiocholine reacts with DTNB.)
Protocol: Enzyme (AChE/BChE) inhibition activities were measured by spectrophotometric method as described in literature (Ellman et al. [1961]). Reported protocol and assay conditions were followed throughout (Rocha et al. [1993]). AChI and AChCl substrates were used to assay AChE and BChE, respectively. DTNB was used as reagent for the measurement of cholinesterase activity. Solution containing DTNB (0.2 mM) in 62 mM sodium phosphate buffer (pH 8.0, 880 μL), test compound solution (40 μL) and AChE or BChE solution (40 μL) were mixed, incubated for 15 min (25 °C). AChE or BChE (40 μL), were added to initiate the respective solution. The hydrolysis of AChE and BChE were noted by naked eye due to formation of yellow colour 5-thio-2-nitrobenzoate anion at a wavelength of 412 nm (15 min). Reactions were performed in triplicate in a BMS spectrophotometer (USA) and the results presented are average values.

The mark [3] stands for this setting: listed as isotalatazidine hydrate.
Setting [4] is: listed as isotalatizidine hydrate.

T1 sequence (O42275 24-633): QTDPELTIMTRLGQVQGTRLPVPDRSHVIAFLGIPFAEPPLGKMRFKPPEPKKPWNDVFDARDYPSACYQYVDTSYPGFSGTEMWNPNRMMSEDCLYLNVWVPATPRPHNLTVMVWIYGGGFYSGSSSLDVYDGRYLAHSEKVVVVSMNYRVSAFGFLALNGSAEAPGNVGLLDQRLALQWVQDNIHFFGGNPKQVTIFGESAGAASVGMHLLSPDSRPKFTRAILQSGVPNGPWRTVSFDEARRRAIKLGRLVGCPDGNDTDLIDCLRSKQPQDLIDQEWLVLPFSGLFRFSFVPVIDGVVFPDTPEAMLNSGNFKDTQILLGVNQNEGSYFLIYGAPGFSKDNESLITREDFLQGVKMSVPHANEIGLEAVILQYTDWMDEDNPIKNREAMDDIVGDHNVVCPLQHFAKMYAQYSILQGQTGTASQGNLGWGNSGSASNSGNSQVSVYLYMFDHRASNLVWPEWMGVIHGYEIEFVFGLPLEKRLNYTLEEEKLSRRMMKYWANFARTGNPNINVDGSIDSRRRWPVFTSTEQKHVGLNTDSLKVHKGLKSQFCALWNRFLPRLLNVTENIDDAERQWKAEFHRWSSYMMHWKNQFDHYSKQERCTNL

As to `CCN1CC2(COC)CCC(O)C34C5CC6C(OC)CC(O)(C(CC23)C14)C5C6O` (centres unmarked) [Isotalatizidine hydrate, isotalatizidine hydrate], the “Type of inhibition (AChE)” value in experiment [1] was “Competitive”; in experiment [1] (setting [3]), “competitive type inhibition”; in experiment [1] (setting [4]) it was “competitive inhibitor”. The IC50 in experiment [1] (standard error of mean of five assays, DTNB, pH 8.0, 25 °C, read-out: AChE ± SEM (IC50)) is 12.1 ± 0.43 µM; in experiment [2] (standard error of mean of five assays, DTNB, pH 8.0, 25 °C, read-out: BChE ± SEM (IC50)), 21.4 ± 0.23 µM. The results for the “Type of inhibition (BChE)” value in experiment [2], in experiment [2] (setting [3]) and in experiment [2] (setting [4]) were “Competitive”, “competitive type inhibition” and “competitive inhibitor”, respectively.
